This note sets out measurements from ChEMBL document CHEMBL1143946, “Docking analyses on human muscarinic receptors: unveiling the subtypes peculiarities in agonists binding” (Bioorg Med Chem, 2008).

As usually defined, the Ki is the equilibrium dissociation constant of an inhibitor or competing ligand from its target.

Assay in all cases: biochemical
The target of test [1] is T1, Muscarinic acetylcholine receptor M1 (Homo sapiens, UniProt P11229).
T1 sequence (P11229 whole entry): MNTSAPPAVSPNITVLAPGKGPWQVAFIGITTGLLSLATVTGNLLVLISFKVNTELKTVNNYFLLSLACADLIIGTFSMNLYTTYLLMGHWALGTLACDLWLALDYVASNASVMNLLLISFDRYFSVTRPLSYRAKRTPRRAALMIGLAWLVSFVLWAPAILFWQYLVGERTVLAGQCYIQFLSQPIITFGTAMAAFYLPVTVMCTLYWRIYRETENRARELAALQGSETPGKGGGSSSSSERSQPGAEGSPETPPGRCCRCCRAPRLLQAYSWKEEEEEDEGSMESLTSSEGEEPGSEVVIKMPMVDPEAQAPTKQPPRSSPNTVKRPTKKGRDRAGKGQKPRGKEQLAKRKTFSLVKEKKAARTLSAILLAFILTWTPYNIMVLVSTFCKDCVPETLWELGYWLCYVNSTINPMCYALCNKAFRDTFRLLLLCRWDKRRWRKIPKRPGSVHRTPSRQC

For test [2], the target named is T2, Muscarinic acetylcholine receptor M2 (Homo sapiens, UniProt P08172).
T2 sequence (P08172 whole entry): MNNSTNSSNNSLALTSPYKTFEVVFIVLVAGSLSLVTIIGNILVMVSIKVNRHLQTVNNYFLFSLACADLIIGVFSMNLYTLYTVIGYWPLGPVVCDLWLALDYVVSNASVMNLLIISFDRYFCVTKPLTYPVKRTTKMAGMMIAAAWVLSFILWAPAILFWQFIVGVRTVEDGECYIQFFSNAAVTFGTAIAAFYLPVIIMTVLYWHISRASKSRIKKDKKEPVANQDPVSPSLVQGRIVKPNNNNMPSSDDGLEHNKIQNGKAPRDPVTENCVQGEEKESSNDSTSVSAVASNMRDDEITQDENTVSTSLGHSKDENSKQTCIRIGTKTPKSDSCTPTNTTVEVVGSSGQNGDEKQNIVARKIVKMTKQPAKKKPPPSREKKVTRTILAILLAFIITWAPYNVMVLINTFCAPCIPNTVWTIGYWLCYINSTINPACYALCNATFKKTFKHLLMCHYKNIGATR

Test [3] concerns the target T3, Muscarinic acetylcholine receptor M5 (Homo sapiens, UniProt P08912).
T3 sequence (P08912 whole entry): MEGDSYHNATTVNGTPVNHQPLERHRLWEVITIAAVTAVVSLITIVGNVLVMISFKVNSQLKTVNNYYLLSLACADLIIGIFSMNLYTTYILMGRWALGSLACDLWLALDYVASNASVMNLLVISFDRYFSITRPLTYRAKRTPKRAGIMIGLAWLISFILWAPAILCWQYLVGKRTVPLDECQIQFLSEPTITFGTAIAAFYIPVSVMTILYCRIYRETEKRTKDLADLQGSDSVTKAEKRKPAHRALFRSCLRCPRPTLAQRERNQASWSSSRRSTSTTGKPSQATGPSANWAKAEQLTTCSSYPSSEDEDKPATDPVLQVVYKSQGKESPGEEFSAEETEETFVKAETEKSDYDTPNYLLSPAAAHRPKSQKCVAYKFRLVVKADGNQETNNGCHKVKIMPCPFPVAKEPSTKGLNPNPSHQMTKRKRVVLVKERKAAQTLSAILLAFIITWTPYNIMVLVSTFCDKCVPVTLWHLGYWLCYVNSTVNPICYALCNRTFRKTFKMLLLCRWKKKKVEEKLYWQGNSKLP
Description: Binding affinity to human cloned muscarinic M5 receptor expressed in CHO cells

On to `CC(=O)OC1CC2CCCC1N2` (configuration not stated), for which the figures for the Ki in test [1] and in test [2] were 21.4 µM and 0.00263 µM, respectively.
As to `Cc1nccn1CC#CCOc1ccon1`, the Ki in test [3] is 0.00617 µM; in test [1], 0.0912 µM; in test [2] it was 0.00363 µM.
The like results for `Cc1nccn1CC#CCN1CCCC1=O` were, in that order, 0.0513 µM, 0.12 µM and 0.102 µM.
The like results for `C[C@H]1OC[C@@H]([C@H]2CCC[N+]2(C)C)O1` were, in that order, 52.5 µM, 52.5 µM and 5.01 µM.
The corresponding values for `C[C@H]1O[C@@H]([C@H]2CCC[N+]2(C)C)CS1` are 10.7 µM, 5.89 µM and 1.41 µM.
Consider `CO/N=C/C1=CCCN(C)C1` [MILAMELINE], for which the Ki in test [3] was 3.16 µM; in test [1] it was 5.62 µM; in test [2] it was 1 µM.
The corresponding values for `C[C@@H]1O[C@H](C[N+](C)(C)C)CS1` are 13.2 µM, 11 µM and 2.09 µM.
As for `CO/N=C(\C#N)[C@H]1CN2CCC1CC2` [SABCOMELINE], the Ki was 0.229 µM in test [1] and 0.204 µM in test [2].
Consider `C[C@@H]1O[C@H]([C@H]2CCC[N+]2(C)C)CS1`, for which the Ki was 24.5 µM in test [3], 19.1 µM in test [1] and 5.25 µM in test [2].
Consider `C[C@H]1OC[C@@H]([C@@H]2CCC[N+]2(C)C)O1`, for which the Ki is 22.9 µM in test [3], 21.4 µM in test [1] and 1.7 µM in test [2].
`C[C@@H]1O[C@H]([C@@H]2CCC[N+]2(C)C)C[S+]1[O-]` (stereo in doubt; 12): the Ki in test [3] is 57.5 µM; in test [2], 81.3 µM.
With `CC(=O)OC1CC2CCCC1N2C` (configuration not stated), the Ki in test [1] was 282 µM; in test [2], 2.75 µM.
In the case of `C[C@@H]1O[C@H]([C@@H]2CCC[N+]2(C)C)CS1`, the figures for the Ki in test [3], in test [1] and in test [2] were 23.4 µM, 14.1 µM and 3.55 µM, respectively.
`C[C@H]1O[C@@H]([C@@H]2CCC[N+]2(C)C)C[S+]1[O-]` (some centres not stated) showed a Ki in test [2] of 77.6 µM.
Regarding `C[C@H]1OC[C@@H](C[N+](C)(C)C)O1`, the Ki in test [3] is 21.9 µM; in test [1], 11 µM; in test [2], 1.2 µM.
The corresponding values for `C[C@H]1O[C@@H]([C@@H]2CCC[N+]2(C)C)CS1` are 10.2 µM, 8.32 µM and 0.676 µM.
With `C[N+](C)(C)CC#CCN1CCCC1=O` [OXOTREMORINE METHIODIDE], the Ki in test [1] was 20.4 µM; in test [2], 0.107 µM.
Regarding `C[C@H]1COC[C@@H](C[N+](C)(C)C)O1`, the Ki in test [3] is 3.72 µM; in test [2], 37.2 µM.
For `C[C@@H]1O[C@H]([C@@H]2CCC[N+]2(C)C)C[S+]1[O-]` (stereo in doubt; 11), the Ki is 33.9 µM in test [3], 93.3 µM in test [1] and 15.5 µM in test [2].
As to `C[C@@H]1O[C@H]([C@@H]2CCC[N+]2(C)C)C[S+]1[O-]` (stereo in doubt; 9), the affinity in test [2], expressed as Ki, was 9.33 µM.
For `O=C1CCCN1CC#CCN1CCCC1` [OXOTREMORINE], the Ki in test [1] is 0.00112 µM; in test [2], 0.324 µM.
